Legend:
rCRLR/rRAMP1 (rat) = rCRLR/rRAMP1 (rat) (UniProt Q63118); assay: competitive radioligand binding against 10 pM 125I-hCGRP, membranes of transfected 293 EBNA cells
[1] = target: T1, rCRLR/rRAMP1 (native rat CGRP receptor) (Rattus norvegicus, UniProt Q63118+Q9JJ74); assay: competitive 125I-hCGRP binding, membranes expressing rCRLR/rRAMP1
T1 construct: expressed in transfected cells; host or cells: 293 EBNA cells, transient co-transfection, membranes
Procedure: (§1) Cell Culture and DNA Transfection—293 EBNA cells were cultured in DMEM with 4.5 g/L glucose, 1 mM sodium pyruvate and 2 mM glutamine supplemented with 10% Fetal Bovine Serum (FBS), 100 units/mL penicillin and 100 μg/mL streptomycin, and maintained at 37° C. and 95% humidity. Cells were subcultured by treatment with 0.25% trypsin with 0.1% EDTA in HBSS.
(§2) Twenty-four hours prior to transfection, the cells were seeded at 2.0×10^7/dish in 500 cm^2 dishes. The following day, the cells were re-fed with fresh growth medium 1 hour before transfection. Transfections were performed by combining 60 μg/dish DNA with 180 μg/dish Lipofectamine 2000 (Life Technologies). cDNA's for CRLR and RAMP1 in the mammalian expression vector pcDNA3.1 were co-transfected in equal amounts. The transfection cocktail was added directly to the medium and this mixture was replaced with fresh medium 24 hours later. The cells were harvested for membranes 48 hours post-transfection.
(§3) Membrane Preparation and Radioligand Binding Studies—Transiently transfected 293 EBNA cells were washed once with PBS and harvested in harvest buffer containing 50 mM HEPES, 1 mM EDTA and Complete protease inhibitors (Roche).

rCRLR/hRAMP1 = target: T2, rCRLR/hRAMP1 (UniProt O60894+Q63118); assay: competitive 125I-hCGRP binding, membranes expressing hybrid rCRLR/hRAMP1; parameters: species or system rat CRLR, human RAMP1; conditions: Table 4
T2 construct: expressed in transfected cells; host or cells: 293 EBNA cells, transient co-transfection, membranes
Procedure: as §1
as §2, with “post-transfection. […]” for “post-transfection.”
For binding assays, 1.5-25 μg of membranes (dependent upon receptor expression levels) were incubated for 3 hours at room temperature in binding buffer (10 mM HEPES, 5 mM MgCl2, 0.2% BSA) containing 10 pM ^125I-hCGRP (Amersham) in a total volume of 1 mL. […] Data were analyzed by using GraphPad Prism.

rCRLR/Chimera 1 = target: T3, rCRLR/Chimera 1 (Rattus norvegicus, UniProt Q63118+Q9JJ74, D29E/D31N/E46V/G64R/I36L/I51V/K45Q/K53E/K61R/P30A/Q37R/R28Q/R43Q/S42T/T34A/T50A/V24T); assay: competitive 125I-hCGRP binding, membranes expressing rCRLR with RAMP1 Chimera 1; parameters: species or system rat CRLR, human/rat chimeric RAMP1; conditions: Table 5; rCRLR/Chimera 1 (first 66 aa of rRAMP1 replaced with human)
T3 construct: expressed in transfected cells; host or cells: 293 EBNA cells, transient co-transfection, membranes
From the text: Two human/rat chimeric RAMP1 cDNAs were constructed by using restriction fragments of the corresponding native cDNAs. Chimera 1 was created by replacing the nucleotides coding for the first 66 amino acids of rRAMP1 with the corresponding nucleotides of hRAMP1 by using the BsgI restriction site along with a NheI site located in the cloning vector. Chimera 2 was created by replacing the nucleotides coding for the first 112 amino acids of rRAMP1 with the corresponding nucleotides of hRAMP1 by using the SanDI restriction site along with a NheI site located in the cloning vector. Cell Culture and DNA Transfection-293 EBNA cells were cultured in DMEM with 4.5 g/L glucose, 1 mM sodium pyruvate and 2 mM glutamine supplemented with 10% Fetal Bovine Serum (FBS), 100 units/mL penicillin and 100 μg/mL streptomycin, and maintained at 37° C. and 95% humidity. Cells were subcultured by treatment with 0.25% trypsin with 0.1% EDTA in HBSS. Twenty-four hours prior to transfection, the cells were seeded at 2.0×10^7/dish in 500 cm^2 dishes. The following day, the cells were re-fed with fresh growth medium 1 hour before transfection. Transfections were performed by combining 60 μg/dish DNA with 180 μg/dish Lipofectamine 2000 (Life Technologies). cDNA's for CRLR and RAMP1 in the mammalian expression vector pcDNA3.1 were co-transfected in equal amounts. […] Data were analyzed by using GraphPad Prism. […]

rCRLR/rK74W RAMP1 = target: T4, rCRLR/rK74W RAMP1 (Rattus norvegicus, UniProt Q63118+Q9JJ74, K74W); assay: competitive 125I-hCGRP binding, membranes expressing rCRLR and mutant rK74W RAMP1; conditions: Table 6
T4 construct: and the rRAMP1 expression vector construct as template; expressed in transfected cells; host or cells: 293 EBNA cells, transient co-transfection, membranes
Procedure: Rat RAMP1 site-directed mutagenesis was performed by using the Quick Change Site-directed Mutagenesis Kit (Stratagene) according to the manufacturer's instructions. […] of rRAMP1 was replaced with the corresponding human/marmoset amino acid tryptophan utilizing two complementary mutant oligonucleotide primers ([NT] ID NO:27] and [NT] ID NO:28]) and the rRAMP1 expression vector construct as template. This mutation was accomplished by substituting the codon TGG corresponding to tryptophan (r[…] RAMP1). All constructs were sequenced bidirectionally with 100% coverage in each direction. Cell Culture and DNA Transfection-293 EBNA cells were cultured in DMEM with 4.5 g/L glucose, 1 mM sodium pyruvate and 2 mM glutamine supplemented with 10% Fetal Bovine Serum (FBS), 100 units/mL penicillin and 100 μg/mL streptomycin, and maintained at 37° C. and 95% humidity. Cells were subcultured by treatment with 0.25% trypsin with 0.1% EDTA in HBSS. Twenty-four hours prior to transfection, the cells were seeded at 2.0×10^7/dish in 500 cm^2 dishes. The following day, the cells were re-fed with fresh growth medium 1 hour before transfection. Transfections were performed by combining 60 μg/dish DNA with 180 μg/dish Lipofectamine 2000 (Life Technologies). cDNA's for CRLR and RAMP1 in the mammalian expression vector pcDNA3.1 were co-transfected in equal amounts. […] Data were analyzed by using GraphPad Prism. […]

[2] = target: T5, mCRLR/mRAMP1 (native mouse receptor) (Mus musculus, UniProt Q9R1W5+Q9WTJ5); assay: competitive binding, membranes expressing mCRLR/mRAMP1; conditions: Table 7
T5 construct: expressed in transfected cells
Procedure: as §1, §2, §3

mCRLR/mK74W RAMP1 = target: T6, mCRLR/mK74W RAMP1 (Mus musculus, UniProt Q9R1W5+Q9WTJ5, K74W); assay: competitive binding, membranes expressing mCRLR and mutant mK74W RAMP1; conditions: Table 7
T6 construct: The mouse RAMP1 expression vector construct was used as template; expressed in transfected cells
Procedure: as §1, §2, §3

human CGRP receptor = human CGRP receptor (Homo sapiens, UniProt O60894+Q16602); conditions: cited from earlier work

Compound | IC50 (rCRLR/rRAMP1 (rat)) [nM] | IC50 ([1]; Table 4) [nM] | IC50 ([1]; Table 6) [nM] | IC50 (rCRLR/hRAMP1) [nM] | IC50 (rCRLR/Chimera 1) [nM] | IC50 (rCRLR/rK74W RAMP1) [nM] | IC50 [2] [nM] | IC50 (mCRLR/mK74W RAMP1) [nM] | higher affinity for the human CGRP receptor than for the rat receptor (human CGRP receptor; human vs rat, Doods et al.) [fold] | lower affinity for CGRP receptors from rat, rabbit, dog, and guinea pig (human CGRP receptor; versus human CGRP receptor, Doods et al. 2000) [fold]
CGRP8-37 (peptide) | 2 |  |  |  |  |  |  |  |  | 
NCCCC[C@H](NC(=O)[C@@H](Cc1cc(Br)c(O)c(Br)c1)NC(=O)N1CCC(N2Cc3ccccc3NC2=O)CC1)C(=O)N1CCN(c2ccncc2)CC1 [BIBN4096BS] |  | 6.9 | 5.5 | 0.41 | 4.8 | 0.08 | 8.5 | 0.1 | 200 | 200
